Among the data in patent US20090105250A1, “COMPOUNDS AND COMPOSITIONS AS PROTEIN KINASE INHIBITORS” (IRM LLC, priority 2005, published 2009) are GI50 and IC50 values, retold here.

What all share (assay type): cell-based
One assay concerns the target T1, PDGFRβ (Homo sapiens, UniProt P09619).
T1 construct: fused on or other part: P41212 (Transcription factor ETV6)
Description: PDGFRβ (Cellular Assay), Ba/F3-Tel-PDGFRβ proliferation. To be noted: read-out: IC50 for PDGFRβ.

Another assay deals with T2, Flt-3 (Homo sapiens, UniProt P36888, cells depend on it, form not given).
T2 sequence (P36888 1-993): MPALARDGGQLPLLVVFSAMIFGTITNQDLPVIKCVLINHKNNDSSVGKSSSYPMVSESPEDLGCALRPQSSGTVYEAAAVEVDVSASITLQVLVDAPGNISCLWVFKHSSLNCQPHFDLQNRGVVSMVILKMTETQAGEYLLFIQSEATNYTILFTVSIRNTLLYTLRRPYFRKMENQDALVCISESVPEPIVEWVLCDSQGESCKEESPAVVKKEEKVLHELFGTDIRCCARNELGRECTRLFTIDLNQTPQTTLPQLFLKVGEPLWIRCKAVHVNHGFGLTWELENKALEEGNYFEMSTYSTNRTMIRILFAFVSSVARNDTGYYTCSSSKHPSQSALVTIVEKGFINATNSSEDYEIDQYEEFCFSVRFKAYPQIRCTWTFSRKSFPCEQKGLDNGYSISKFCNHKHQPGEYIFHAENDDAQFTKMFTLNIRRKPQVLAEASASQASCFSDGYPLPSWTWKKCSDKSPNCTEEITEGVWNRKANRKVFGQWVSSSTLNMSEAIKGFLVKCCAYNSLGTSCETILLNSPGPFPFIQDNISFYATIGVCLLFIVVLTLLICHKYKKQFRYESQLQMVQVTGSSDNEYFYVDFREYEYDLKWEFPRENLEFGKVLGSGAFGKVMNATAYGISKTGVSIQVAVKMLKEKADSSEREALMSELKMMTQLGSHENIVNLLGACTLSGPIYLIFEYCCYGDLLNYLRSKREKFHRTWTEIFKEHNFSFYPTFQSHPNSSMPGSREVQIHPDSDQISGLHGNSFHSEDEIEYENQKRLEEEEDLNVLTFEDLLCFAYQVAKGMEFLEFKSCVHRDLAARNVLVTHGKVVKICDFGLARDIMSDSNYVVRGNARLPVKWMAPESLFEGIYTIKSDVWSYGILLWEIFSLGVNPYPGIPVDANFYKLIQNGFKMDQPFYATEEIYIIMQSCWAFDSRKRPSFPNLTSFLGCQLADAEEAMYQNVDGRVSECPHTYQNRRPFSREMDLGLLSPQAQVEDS
The assay is described as follows: FLT3 (Cellular Assay), Ba/F3-FLT3-ITD proliferation. To be noted: read-out: IC50 for Flt-3.

Another assay has as its target T3, T315I Bcr-abl (Homo sapiens, UniProt P00519, T315I).
T3 construct: expressed in transfected cells; host or cells: Ba/F3 murine pro-B cells; the other entry of the earlier key: BCR (P11274, Breakpoint cluster region protein)
The assay is described as follows: Proliferation of Ba/F3 cells expressing mutant Bcr-abl T315I. Here is the method: (§1) Ba/F3-p210 cells are plated into 96 well TC plates at a density of 15,000 cells per well. 50 μL of two fold serial dilutions of the test compound (Cmax, is […]) are added to each well (STI571 is included as a positive control). After incubating the cells for 48 hours at 37° C., 5% CO2, 15 μL of MTT (Promega) is added to each well and the cells are incubated for an additional 5 hours. The optical density at 570 nm is quantified spectrophotometrically and IC50 values, the concentration of compound required for 50% inhibition, determined from a dose response curve.
(§2) Compounds of the invention are tested for their antiproliferative effect on Ba/F3 cells expressing either wild type or the mutant forms of BCR-Abl (G250E, E255V, T315I, F317L, M351T) that confers resistance or diminished sensitivity to STI571. The antiproliferative effect of these compounds on the mutant-BCR-Abl expressing cells and on the non transformed cells were tested as described above. The IC50 values of the compounds lacking toxicity on the untransformed cells were determined from the dose response curves obtained as describe above.

In the next assay the target is T4, wild type Bcr-abl (Homo sapiens, UniProt P00519).
T4 construct: expressed in transfected cells; host or cells: Ba/F3 murine pro-B cells; the other entry of the earlier key: BCR (P11274, Breakpoint cluster region protein)
The assay is described as follows: Proliferation of Ba/F3 cells expressing wild type Bcr-abl. Here is the method: The murine cell line used is the Ba/F3 murine pro-B cell line transformed with BCR-Abl cDNA (Ba/F3-p210). These cells are maintained in RPMI/10% fetal calf serum (RPMI/FCS) supplemented with penicillin 50 μg/mL, streptomycin 50 μg/mL and L-glutamine 200 mM. Untransformed Ba/F3 Ba/F3 cells are similarly maintained with the addition of murine recombinant IL3.
as §1
Compounds of the invention are tested for their antiproliferative effect on Ba/F3 cells expressing either wild type or the mutant forms of BCR-Abl (G250E, E255V, T315I, F317L, M351T) that confers resistance or diminished sensitivity to STI571. […] The IC50 values of the compounds lacking toxicity on the untransformed cells were determined from the dose response curves obtained as describe above.

The target in a further assay is T5, E255V Bcr-abl (Homo sapiens, UniProt P00519, E255V).
T5 construct: expressed in transfected cells; host or cells: Ba/F3 murine pro-B cells; the other entry of the earlier key: BCR (P11274, Breakpoint cluster region protein)
T5 sequence (P00519 229-512 E255V limits assumed): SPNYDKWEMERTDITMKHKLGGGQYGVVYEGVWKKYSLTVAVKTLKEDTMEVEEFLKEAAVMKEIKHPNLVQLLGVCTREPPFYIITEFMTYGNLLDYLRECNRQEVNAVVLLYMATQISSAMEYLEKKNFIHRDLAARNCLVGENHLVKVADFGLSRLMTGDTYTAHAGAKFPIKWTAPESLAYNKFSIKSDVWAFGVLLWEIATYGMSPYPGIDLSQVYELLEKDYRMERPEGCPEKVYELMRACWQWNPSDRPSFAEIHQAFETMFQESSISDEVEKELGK
The assay is described as follows: Proliferation of Ba/F3 cells expressing mutant Bcr-abl E255V. Here is the method:
as §1, §2

Another assay concerns the target T6, F317L Bcr-abl (Homo sapiens, UniProt P00519, F317L).
T6 construct: expressed in transfected cells; host or cells: Ba/F3 murine pro-B cells; the other entry of the earlier key: BCR (P11274, Breakpoint cluster region protein)
The assay is described as follows: Proliferation of Ba/F3 cells expressing mutant Bcr-abl F317L. Here is the method: as §1, §2

The target of another assay is T7, G250E Bcr-abl (Homo sapiens, UniProt P00519, G250E).
T7 construct: expressed in transfected cells; host or cells: Ba/F3 murine pro-B cells; the other entry of the earlier key: BCR (P11274, Breakpoint cluster region protein)
The assay is described as follows: Proliferation of Ba/F3 cells expressing mutant Bcr-abl G250E. Here is the method:
as §1, §2

The next assay has as its target T8, M351T Bcr-abl (Homo sapiens, UniProt P00519, M351T).
T8 construct: expressed in transfected cells; host or cells: Ba/F3 murine pro-B cells; the other entry of the earlier key: BCR (P11274, Breakpoint cluster region protein)
The assay is described as follows: Proliferation of Ba/F3 cells expressing mutant Bcr-abl M351T. Here is the method:
as §1, §2

Molecules are shown by their SMILES.

T1 sequence (P09619 600-962 limits assumed, change not shown): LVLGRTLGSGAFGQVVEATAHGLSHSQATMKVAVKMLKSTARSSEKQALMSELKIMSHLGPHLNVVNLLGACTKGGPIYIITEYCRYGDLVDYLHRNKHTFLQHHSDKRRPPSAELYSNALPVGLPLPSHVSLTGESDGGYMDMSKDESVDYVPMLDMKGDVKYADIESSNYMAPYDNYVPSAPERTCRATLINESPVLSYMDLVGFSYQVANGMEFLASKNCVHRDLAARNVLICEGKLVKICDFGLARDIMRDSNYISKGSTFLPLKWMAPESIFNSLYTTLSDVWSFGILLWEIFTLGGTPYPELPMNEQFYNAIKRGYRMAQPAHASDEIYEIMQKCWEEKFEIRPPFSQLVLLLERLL

For the molecule `Cc1cn(-c2cc(C(=O)Nc3ccc(C)c(NC(=O)c4cnc(Nc5cc(N6CCOCC6)nc(C)n5)s4)c3)cc(C(F)(F)F)c2)cn1` [Example 28, 2-(2-methyl-6-morpholin-4-yl-pyrimidin-4-ylamino)-thiazole-5-carboxylic acid {2-methyl-5-[3-(4-methyl-imidazol-1-yl)-5-trifluoromethyl-benzoylamino]-phenyl}-amide], the GI50 on PDGFRβ stood at 5 nM.
As for `Cc1cn(-c2cc(C(=O)Nc3ccc(C)c(NC(=O)c4cnc(NCCO)s4)c3)cc(C(F)(F)F)c2)cn1` [Compound 5, 2-(2-Hydroxy-ethylamino)-thiazole-5-carboxylic acid {2-methyl-5-[3-(4-methyl-imidazol-1-yl)-5-trifluoromethyl-benzoylamino]-phenyl}-amide], the GI50 at Flt-3 stood at 41 nM.
As usually defined, the IC50 is the concentration that inhibits the measured activity by half. A lower IC50 goes with greater potency. As for `CCN1CCN(c2cc(Nc3ncc(C(=O)Nc4cc(NC(=O)c5cc(-n6cnc(C)c6)cc(C(F)(F)F)c5)ccc4C)s3)nc(C)n2)CC1` [Example 29, 2-[6-(4-ethyl-piperazin-1-yl)-2-methyl-pyrimidin-4-ylamino]-thiazole-5-carboxylic acid {2-methyl-5-[3-(4-methyl-imidazol-1-yl)-5-trifluoromethyl-benzoylamino]-phenyl}-amide], the figures for the IC50 at T315I Bcr-abl and at wild type Bcr-abl were 570 nM and 8 nM, respectively.
For the molecule `CCN1CCN(c2cc(Nc3ncc(C(=O)Nc4cc(NC(=O)c5cccc(C(F)(F)F)c5)ccc4C)s3)nc(C)n2)CC1` [Example 8, 2-[6-(4-ethyl-piperazin-1-yl)-2-methyl-pyrimidin-4-ylamino]-thiazole-5-carboxylic acid [2-methyl-5-(3-trifluoromethyl-benzoylamino)-phenyl]-amide], the IC50 on E255V Bcr-abl was 12 nM; on T315I Bcr-abl it was 1270 nM; on F317L Bcr-abl, 5 nM; against G250E Bcr-abl it was 2290 nM; on wild type Bcr-abl, 5 nM; against M351T Bcr-abl, 5 nM.
